Test results from the NIST ThermoML archive (doi:10.1016/j.tca.2014.02.019).

Assay: xn = mol fraction of the nth substance listed
Conditions: 101 kPa, Liquid; for viscosity: Falling or rolling sphere viscometry; for mass density: Vibrating tube method

CCOS(=O)(=O)[O-].CC[N+]1(C)CCCCC1 [1-ethyl-1-methylpiperidinium ethyl sulfate] + O
Conditions	mass density [kg/m3]	viscosity [mPa·s]
298.15 K, x1 = 0.106	1113.1	7.436
298.15 K, x1 = 0.1407	1128.31	11.14
298.15 K, x1 = 0.2161	1148.02	22.79
298.15 K, x1 = 0.2643	1155.38	31.79
298.15 K, x1 = 0.3605	1164.49	54.56
298.15 K, x1 = 0.4662	1170.4	96.57
298.15 K, x1 = 0.5583	1173.75	159.1
298.15 K, x1 = 0.6591	1176.55	276.5
298.15 K, x1 = 0.7296	1177.92	419.2
298.15 K, x1 = 0.8133	1179.24	690.5
298.15 K, x1 = 1	1181.33	1821
303.15 K, x1 = 0.106	1109.81	6.222
303.15 K, x1 = 0.1407	1124.96	9.197
303.15 K, x1 = 0.2161	1144.56	18.22
303.15 K, x1 = 0.2643	1152	25.04
303.15 K, x1 = 0.3605	1161.22	42.54
303.15 K, x1 = 0.4662	1167.23	74.01
303.15 K, x1 = 0.5583	1170.68	119.5
303.15 K, x1 = 0.6591	1173.32	202.2
303.15 K, x1 = 0.7296	1174.77	296.9
303.15 K, x1 = 0.8133	1176.06	473.2
303.15 K, x1 = 1	1178.23	1186
308.15 K, x1 = 0.106	1106.45	5.272
308.15 K, x1 = 0.1407	1121.5	7.687
308.15 K, x1 = 0.2161	1141.12	14.99
308.15 K, x1 = 0.2643	1148.59	20.4
308.15 K, x1 = 0.3605	1157.92	33.84
308.15 K, x1 = 0.4662	1164.02	57.65
308.15 K, x1 = 0.5583	1167.53	91.73
308.15 K, x1 = 0.6591	1170.15	150.9
308.15 K, x1 = 0.7296	1171.56	218.5
308.15 K, x1 = 0.8133	1172.89	333.5
308.15 K, x1 = 1	1175.1	795.7
313.15 K, x1 = 0.106	1103.05	4.518
313.15 K, x1 = 0.1407	1118.01	6.508
313.15 K, x1 = 0.2161	1137.63	12.34
313.15 K, x1 = 0.2643	1145.18	16.7
313.15 K, x1 = 0.3605	1154.61	27.55
313.15 K, x1 = 0.4662	1160.8	45.97
313.15 K, x1 = 0.5583	1164.37	71.4
313.15 K, x1 = 0.6591	1167.05	115.8
313.15 K, x1 = 0.7296	1168.39	163.1
313.15 K, x1 = 0.8133	1169.71	242.2
313.15 K, x1 = 1	1171.79	549.9
318.15 K, x1 = 0.106	1099.61	3.91
318.15 K, x1 = 0.1407	1114.5	5.576
318.15 K, x1 = 0.2161	1134.17	10.38
318.15 K, x1 = 0.2643	1141.75	14.03
318.15 K, x1 = 0.3605	1151.3	22.7
318.15 K, x1 = 0.4662	1157.58	37.27
318.15 K, x1 = 0.5583	1161.21	56.71
318.15 K, x1 = 0.6591	1163.94	89.86
318.15 K, x1 = 0.7296	1165.32	123.9
318.15 K, x1 = 0.8133	1166.53	171.1
318.15 K, x1 = 1	1168.85	391.8
323.15 K, x1 = 0.106	1096.14	3.415
323.15 K, x1 = 0.1407	1110.96	4.818
323.15 K, x1 = 0.2161	1130.66	8.774
323.15 K, x1 = 0.2643	1138.31	11.77
323.15 K, x1 = 0.3605	1147.97	18.73
323.15 K, x1 = 0.4662	1154.35	30.42
323.15 K, x1 = 0.5583	1158.04	45.67
323.15 K, x1 = 0.6591	1160.83	70.97
323.15 K, x1 = 0.7296	1162.25	92.8
323.15 K, x1 = 0.8133	1163.48	130.8
323.15 K, x1 = 1	1165.73	285.8
328.15 K, x1 = 0.106	1092.63	3.006
328.15 K, x1 = 0.1407	1107.4	4.206
328.15 K, x1 = 0.2161	1127.13	7.538
328.15 K, x1 = 0.2643	1134.87	10.13
328.15 K, x1 = 0.3605	1144.63	15.77
328.15 K, x1 = 0.4662	1151.12	25.37
328.15 K, x1 = 0.5583	1154.87	37.45
328.15 K, x1 = 0.6591	1157.71	56.75
328.15 K, x1 = 0.7296	1159.16	73.46
328.15 K, x1 = 0.8133	1160.43	101.6
328.15 K, x1 = 1	1162.62	212.6
333.15 K, x1 = 0.106	1089.08	2.667
333.15 K, x1 = 0.1407	1103.8	3.7
333.15 K, x1 = 0.2161	1123.62	6.103
333.15 K, x1 = 0.2643	1131.4	8.625
333.15 K, x1 = 0.3605	1141.31	13.48
333.15 K, x1 = 0.4662	1147.88	21.32
333.15 K, x1 = 0.5583	1151.7	–
333.15 K, x1 = 0.6591	1154.59	44.89
333.15 K, x1 = 0.7296	1156.08	58.82
333.15 K, x1 = 0.8133	1157.38	80.45
333.15 K, x1 = 1	1159.54	162.5
338.15 K, x1 = 0.106	1085.5	2.383
338.15 K, x1 = 0.1407	1100.19	3.278
338.15 K, x1 = 0.2161	1120.07	4.937
338.15 K, x1 = 0.2643	1127.93	7.493
338.15 K, x1 = 0.3605	1137.96	11.57
338.15 K, x1 = 0.4662	1144.64	18.19
338.15 K, x1 = 0.5583	1148.52	26.14
338.15 K, x1 = 0.6591	1151.47	37.58
338.15 K, x1 = 0.7296	1152.99	47.7
338.15 K, x1 = 0.8133	1154.33	64.86
338.15 K, x1 = 1	1156.56	126.1
343.15 K, x1 = 0.106	1081.88	2.143
343.15 K, x1 = 0.1407	1096.54	2.926
343.15 K, x1 = 0.2161	1116.49	4.099
343.15 K, x1 = 0.2643	1124.44	6.755
343.15 K, x1 = 0.3605	1134.62	10.06
343.15 K, x1 = 0.4662	1141.4	15.53
343.15 K, x1 = 0.5583	1145.35	22.23
343.15 K, x1 = 0.6591	1148.36	32.44
343.15 K, x1 = 0.7296	1149.91	40.29
343.15 K, x1 = 0.8133	1151.31	53
343.15 K, x1 = 1	1153.58	99.87
